Among the data in ChEMBL document CHEMBL3232731, “Diterpene glycosides and polyketides from Xylotumulus gibbisporus” (J Nat Prod, 2014) are IC50, Activity and MIC values, retold here.

Converted amounts (≈) assume the structure as drawn.

Data set [1] concerns RAW264.7. Kind of data set: Antiinflammatory activity in mouse RAW264.7 cells assessed as inhibition of LPS-induced nitric oxide production by spectrophotometric analysis. The format is functional, cell-based.
Data set [2] has as its system RAW264.7. Kind of data set: Cytotoxicity against mouse RAW264.7 cells by Alamar Blue assay. The format is cell-based.
The test system of data set [3] is Candida albicans. In words: Antifungal activity against Candida albicans ATCC 18804 by NCCLS method. In kind it is functional.
Data set [4] deals with Candida albicans. Kind of data set: Antifungal activity against Candida albicans ATCC MYA-2876 by NCCLS method. In kind it is functional.
A further data set has as its system Saccharomyces cerevisiae. Kind of data set: Antifungal activity against Saccharomyces cerevisiae ATCC 2345 by NCCLS method. The format is functional.

The term IC50 denotes the concentration that inhibits the measured activity by half. `N=C(NCCC[C@H](N)C(=O)O)N[N+](=O)[O-]` [NITROARGININE]: the IC50 with RAW264.7 [1] came to 146 µM.
Turning to `CO[C@H]1[C@@H](O)[C@H](O)[C@H](OC[C@@]23C[C@@H]4[C@H](C)CC[C@H]4[C@@]4(C=O)C[C@@H]2C(=O)C(=C(C)C)[C@@]34C(=O)O)O[C@@H]1C`, the IC50 in the data set on RAW264.7 [1] amounted to 327 µM. For the same compound, in the data set on RAW264.7 [2], the Activity entry was “Non-toxic”.
Take `N=C(N)NN` [PIMAGEDINE]: in the data set on RAW264.7 [1], the IC50 came out at 22.3 µM.
Broadly, the MIC is the least concentration at which growth counts as inhibited. For `CO[C@H]1[C@@H](O)[C@H](O)[C@H](OC[C@@]23C[C@@H]4[C@H](C)CC[C@H]4[C@@]4(C=O)CC2C=C(C(C)C)[C@@]34C(=O)O)O[C@@H]1C` [SORDARIN], the MIC in the data set on Candida albicans [3] amounted to 64 µg/mL (≈ 130 µM); against Candida albicans [4], 32 µg/mL (≈ 65 µM); against Saccharomyces cerevisiae, 32 µg/mL (≈ 65 µM). For the same compound, the IC50 in the data set with RAW264.7 [1] came out at 157 µM. For the same compound, in the data set on RAW264.7 [2], the Activity entry is “Non-toxic”.
